Assay results published in PubChem BioAssay AID504629 (National Center for Advancing Translational Sciences (NCATS), 2011).

System: Caco-2 monolayer permeability, A-to-B, LC-MS/MS
Experiment: Inhibitors of HPGD: Caco-2 Cell Permeability Profiling
Conditions: hits give high values
Text: Human 15-Hydroxyprostaglandin dehydrogenase (HPGD) catalyzes the inactivation of prostaglandin E2, and plays a major role in cancer biology by antagonizing the oncogenic potential of cyclooxygenase type 2 (COX2). Assays are available, based on absorbance/fluorescence increase of NADH with the substrate 15-OH prostaglandin E2. This bioassays provides profiling data on Caco-2 cell permeability of leads compounds developed for the HPGD project. This in vitro model is often predictive of in vivo absorption of the compound across the intestinal lining by using a Caco2-cell line and measuring the compound's rate of transport […]. NIH Chemical Genomics Center [NCGC] Structural Genomics Consortium [SGC]
1. Buffer Preparation: Prepare 1M HEPES: add 23.83g HEPES to 100ml of 0.85% NaCl Prepare HBSS+ buffer: add 12.8ml of 1M HEPES in 0.85% NaCl to 500ml HBSS buffer. 2. Take out the compounds from -80 degrees C, ultrasonicate or pre-warm for a few minutes to thaw the compounds. 3. […] The T0, LY and T90, LY plates are read by FlexStation 3 at excitation of 485 nm and emission of 535 nm to determine LY permeability. […]

Cc1cc(-c2nnc3n2CCCCC3)c(C)n1-c1ccccc1
permeability Papp: 21 10^-6 cm/s

Cc1cccc(-n2cnc3cc(C(=O)N4CCCCC4)ccc32)c1
permeability Papp: 15 10^-6 cm/s
